Test system: hrpA promoter (T3SS)
Assay: hrpA promoter-probe phrpA in Erwinia amylovora 273, flow cytometry
Assay type: cell-based
Conditions: Ea273 (phrpA), HIM + 100 μM compound
Method: Wild-type Erwinia amylovora 273 was used in this study. The promoter-probe plasmid phrpA was constructed as follows. The hrpA promoter region of Erwinia amylovora 273 was amplified and cloned into pPROBE-NT to produce PhrpA. Plasmid PhrpA was electroporated into Erwinia amylovora 273. Expression of hrpA was analyzed using a FACS Calibur flow cytometer (BD Biosciences, CA). Wild-type Erwinia amylovora 273 containing phrpA was cultured in a hrp-inducing medium (HIM) containing dimethyl sulfoxide (DMSO; solvent of chemical compounds), or HIM supplemented with 100 μM of each compound, and promoter activity was assessed at 6 h and 9 h by measuring GFP intensity using flow cytometry (Table 19).

| Structure (SMILES) | Avg MFI ± SD, hrpA expression (6 h) | Avg MFI ± SD, hrpA expression (9 h) |
| --- | --- | --- |
| O=C(O)[C@@H]1C[C@H]1c1ccccc1 (relative stereo) [Compound 010, trans-2-Phenylcyclopropane-1-carboxylic acid] | 336.7 ± 28.1 | 293.0 ± 4.7 |
| O=C(NO)[C@@H]1C[C@H]1c1ccccc1 (relative stereo) [Compound 162, trans-2-Phenylcyclopropane-1-carbohydroxamic acid] | 711.1 ± 2.8 | 701.9 ± 2.8 |
| O=C(O)/C=C/c1ccc(O)cc1O [Compound 002, 2,4-Dihydroxycinnamic acid] | 1365.3 ± 104.9 | 1479.8 ± 72.9 |
| O=C(O)/C=C/c1ccc(O)c(O)c1 [Compound 003, 3,4-Dihydroxycinnamic acid] | 783.4 ± 80.2 | 787.3 ± 25.2 |
| O=C(O)/C=C/c1cccc(O)c1 [Compound 005, meta-coumaric acid] | 1212 ± 47.6 | 1439.1 ± 97.9 |
| O=C(O)CCc1ccc(O)cc1 [Compound 007, 3-(4-Hydroxyphenyl)propionic acid] | 1093.1 ± 62.8 | 1211.0 ± 58.7 |
| O=C(O)CCc1ccccc1 [Compound 008, Hydrocinnamic acid] | 395.9 ± 16.0 | 342.0 ± 11.7 |
| O=C(O)COc1ccccc1 [Compound 009, Phenoxyacetic acid] | 342.7 ± 24.8 | 269.9 ± 15.2 |
| O=C(O)/C=C/c1cccs1 [Compound 011, trans-3-(2-Thienyl)acrylic acid] | 230.1 ± 5.8 | 167.3 ± 8.2 |
| O=C(O)/C=C/c1c[nH]c2ccccc12 [Compound 012, trans-3-Indoleacrylic acid] | 33.7 ± 8.9 | 47.9 ± 6.9 |
| O=C(O)/C=C/c1cccnc1 [Compound 013, trans-3-(3-Pyridyl)acrylic acid] | 468.3 ± 7.7 | 245.7 ± 3.1 |
| O=C(O)/C=C/c1c[nH]cn1 [Compound 014, trans-3-(4-Imidazolyl)acrylic acid] | 874.6 ± 23.1 | 839.2 ± 17.6 |
| COc1ccccc1/C=C/C(=O)O [Compound 015, trans-2-Methoxycinnamic acid] | 342.6 ± 7.0 | 255.1 ± 1.7 |
| COc1cccc(/C=C/C(=O)O)c1 [Compound 016, trans-3-Methoxycinnamic acid] | 265.3 ± 24.4 | 198.5 ± 20.0 |
| COc1ccc(/C=C/C(=O)O)cc1 [Compound 017, trans-4-Methoxycinnamic acid] | 132.5 ± 5.5 | 76.4 ± 2.7 |
| Cc1ccccc1/C=C/C(=O)O [Compound 018, trans-2-Methylcinnamic acid] | 303.8 ± 8.7 | 262.5 ± 9.3 |
| Cc1cccc(/C=C/C(=O)O)c1 [Compound 019, trans-3-Methylcinnamic acid] | 311.5 ± 18.6 | 251.6 ± 13.3 |
| Cc1ccc(/C=C/C(=O)O)cc1 [Compound 020, trans-4-Methylcinnamic acid] | 208.5 ± 2.7 | 145.4 ± 3.7 |
| O=C(O)/C=C/c1ccccc1Cl [Compound 021, trans-2-Chlorocinnamic acid] | 225.7 ± 35.8 | 192.7 ± 8.6 |
| O=C(O)/C=C/c1cccc(Cl)c1 [Compound 022, trans-3-Chlorocinnamic acid] | 332.9 ± 16.9 | 238.3 ± 8.7 |
| O=C(O)/C=C/c1ccc(Cl)cc1 [Compound 023, trans-4-Chlorocinnamic acid] | 171.8 ± 7.7 | 125.8 ± 3.9 |
| O=C(O)/C=C/c1ccccc1C(=O)O [Compound 024, trans-2-Carboxycinnamic acid] | 361.1 ± 76.1 | 332.2 ± 19.6 |
| O=C(O)/C=C/c1ccc(C(=O)O)cc1 [Compound 025, trans-4-Carboxycinnamic acid] | 421.0 ± 10.6 | 496.7 ± 98.9 |
| O=C(O)/C=C/c1ccc(S)cc1 [Compound 026, trans-4-Mercaptocinnamic acid] | 159.7 ± 22.0 | 44.7 ± 2.7 |
| O=C(O)/C=C/c1ccc([N+](=O)[O-])cc1 [Compound 028, trans-4-Nitrocinnamic acid] | 14.4 ± 16.9 | 4.0 ± 0.3 |

| Structure (SMILES) | Avg MFI ± SD, hrpA expression (6 h) | Avg MFI ± SD, hrpA expression (9 h) |
| --- | --- | --- |
| O=Cc1ccc(/C=C/C(=O)O)cc1 [Compound 029, trans-4-Formlycinnamic acid] | 285.1 ± 40.8 | 218.3 ± 9.9 |
| COC(=O)/C=C/c1ccccc1 [Compound 030, Methyl trans-cinnamate] | 674.8 ± 252.1 | 668.5 ± 31.2 |
| NC(=O)/C=C/c1ccccc1 [Compound 031, trans-Cinnamamide] | 98.0 ± 18.4 | 88.1 ± 4.6 |
| O=C(O)/C=C/c1ccc2ccccc2c1 [Compound 035, 3-(2-naphthyl) acrylic acid] | 178.9 ± 9.7 | 89.0 ± 6.2 |
| O=C(/C=C/c1ccc(Br)cc1)NO [Compound 128, trans-4-Bromocinnamohydroxamic acid] | 17.6 ± 2.8 | 5.7 ± 2.2 |
| O=C(/C=C/c1ccccc1O)NO [Compound 129, trans-2-Hydroxycinnamohydroxamic acid] | 187.9 ± 1.2 | 181.0 ± 0.7 |
| O=C(/C=C/c1cccc(O)c1)NO [Compound 130, trans-3-Hydroxycinnamohydroxamic acid] | 431.4 ± 4.1 | 491.0 ± 10.2 |
| NNC(=O)/C=C/c1ccc(O)cc1 [Compound 133, trans-3-(4-Hydroxyphenyl)acrylohydrazid] | 1716.5 ± 33.1 | 2780.9 ± 58.5 |
| O=C(NO)c1ccccc1O [Compound 135, Salicylhydroxamic acid] | 124.7 ± 7.7 | 147.8 ± 4.3 |
| O=C(O)C#Cc1ccccc1 [Compound 136, Phenylpropiolic acid] | 261.7 ± 1.0 | 307.0 ± 9.3 |
| O=C(/C=C/c1ccc(O)cc1)NCCO [Compound 138, N-(2-Hydroxyethyl)-4-hydroxycinnamamide] | 1474.5 ± 30.4 | 1907.0 ± 39.8 |
| O=C(CCc1ccccc1)NO [Compound 139, 3-Phenylpropionohydroxamic acid] | 306.3 ± 11.9 | 286.3 ± 10.0 |
| O=C(/C=C/c1ccc(-c2ccccc2)cc1)NO [Compound 140, trans-4-Phenylcinnamohydroxamic acid] | 101.7 ± 17.1 | 82.8 ± 4.3 |
| O=C(/C=C/c1ccc(F)cc1)NO [Compound 141, trans-4-Fluorocinnamohydroxamic acid] | 167.6 ± 4.7 | 119.0 ± 7.1 |
| Cc1ccc(/C=C/C(=O)NO)cc1 [Compound 142, trans-4-Methylcinnamohydroxamic acid] | 126.2 ± 5.6 | 106.0 ± 13.6 |
| O=C(COc1ccccc1)NO [Compound 143, 2-Phenoxyacetohydroxamic acid] | 228.7 ± 4.6 | 178.5 ± 27.1 |
| O=C(O)c1ccc(O)cc1 [Compound 144, 4-Hydroxybenzoic acid] | 434.4 ± 22.1 | 424.7 ± 24.8 |
| O=C(O)c1cccc(O)c1 [Compound 145, 3-Hydroxybenzoic acid] | 559.4 ± 23.6 | 529.9 ± 32.0 |
| O=Cc1ccc(/C=C/C(=O)NO)cc1 [Compound 146, trans-4-Formylcinnamohydroxamic acid] | 414.3 ± 31.6 | 435.2 ± 36.2 |
| O=C(/C=C/c1ccc(CO)cc1)NO [Compound 147, trans-4-Hydroxymethylcinnamohydroxamic acid] | 688.6 ± 39.2 | 746.8 ± 96.3 |
| O=C(/C=C/c1ccc(Cl)cc1)NO [Compound 148, trans-4-Chlorocinnamohydroxamic acid] | 22.5 ± 3.7 | 21.8 ± 25.2 |
| O=C(/C=C/c1ccccc1Cl)NO [Compound 150, trans-2-Chlorocinnamohydroxamic acid] | 25.9 ± 3.2 | 30.5 ± 3.3 |
| O=C(/C=C/c1cccc(Br)c1)NO [Compound 151, trans-3-Bromocinnamohydroxamic acid] | 6.3 ± 1.2 | 3.9 ± 1.2 |
| O=C(/C=C/c1ccccc1Br)NO [Compound 152, trans-2-Bromocinnamohydroxamic acid] | 15.7 ± 2.3 | 11.1 ± 1.2 |
| O=C(/C=C/c1cccc(F)c1)NO [Compound 153, trans-3-Fluorocinnamohydroxamic acid] | 177.1 ± 11.9 | 110.6 ± 3.2 |
